# Measured values reported in patent US12357711B2, “PSMA binding dual mode radiotracer and therapeutic” (Technische Universität München, priority 2019, dated 2025).
# Test system: SCID mice
# Assay: Preclinical dosimetry from biodistribution in mice, extrapolated to 70-kg Standard Adult (OLINDA/EXM 1.0)
# Assay type: in vivo
# Details: 1.0 h bladder voiding interval
# Method: 3-5 mice were injected per timepoint with a mean 25.6±3.6 MBq of 18F-rhPSMA-7 and 28.5±4.8 MBq of 18F-rhPSMA-7.3, respectively. Mice, severe combined immunodeficiency (SCID) were used for the experiments.
# Mice were sacrificed at the following timepoints: • ^18F-rhPSMA-7: 10, 20, 40, 60, 120 and 180 minutes after administration. • ^18F-rhPSMA-7.3: 10, 60, 120, 180 and 300 minutes after administration.
# Urine, blood, heart, lung, spleen, pancreas, liver, stomach (emptied), small intestine (emptied), large intestine (emptied), kidneys, bladder, testis, fat, muscle (partial, femoral), femur, tail and brain. Urine was collected with a pipette in the CO2 gas chamber. In case of missing urination in the chamber the bladder was aspirated with an insulin syringe. Blood was withdrawn instantly after sacrifice with an insulin syringe from the heart. All other tissues and organs were dissected and transferred directly in plastic containers.
# The counting rates of measurement samples were automatically corrected for decay. The radioactivity distribution ratios (unit: percentage of the injected dose (% ID) in the measurement samples were determined using the equation below. The sum of the counting rates from all measurement samples obtained from one mouse was designated as the counting rate for administrated radioactivity.
# The radioactivity distribution ratio per unit weight of the measurement sample (unit: % ID/g) excluding urine and feces samples was determined by using the equation below. The weight of the measurement sample was determined by subtraction of the empty measurement container from the container including the sample.
# For consistency of statistical calculations for each radiotracer the same number of time-points for ^18F-rhPSMA-7 and ^18F-rhPSMA-7.3 was used. Therefore, for ^18F-rhPSMA-7 the 10 min and 20 min time points were combined creating a 15 min endpoint.
# The time-integral of activity for the accumulation in the significant source organs (AUCs) were generated both with numerical integration and physical decay according to J Juan et al., Journal of Pharmaceutical Sciences, 1993, 82:762-763.
# In brief, to calculate a human dosimetry from the biodistribution in the mice, an extrapolation was necessary to account for the differences between the animals and humans. Normal-organ radiation doses were estimated for the 70-kg Standard Adult anatomic model using time-depending organ activity concentrations (in percent of the injected dose per gram, % ID/g) and total-body activities measured in the biodistribution studies in mice.
# Tissue activity concentrations in mice were converted to tissue fractional activities in the 70-kg Standard Adult using the relative fractional organ masses in the Standard Adult and the “standard” 25-gramm mouse. Time-dependent total-body activity was fit to an exponential function and the difference between the injected activity and the total-body activity was assumed to be excreted to the urine because activity concentrations in the liver and GI tracer were low at all time points studied.
# Organ residence time was calculated by numerical integration using the trapezoidal rule and the rest-of-body ^18F residence times was calculated as the difference between the total-body residence time and the sum of the organ and urine residence times. The bladder contents residence time was estimated using the dynamic voiding model in the OLINDA/EXM 1.0 dosimetry software. Finally, the Standard Adult mean organ dose equivalents (in mSv/MBq) and effective dose (also in mSv/MBq) were then calculated using OLIN DA/EXM 1.0.
# Final calculation of radiation absorbed dose and dosimetry from biodistribution in mice: The tissues or organs in which a significant accumulation of radioactivity occurs (i.e., source organ) were kidney, spleen, lung, liver and heart. With respect to activity accumulation and clearance, a rapid clearance from blood and clearance to urine but relatively slow build-up in kidney was found.
smiles,measurement,value
"CC(C)(C)[Si](F)(c1ccc(C(=O)NC[C@@H](NC(=O)CC[C@@H](C(=O)O)N2CCN(CC(=O)[O-])CCN(CC(=O)[O-])CCN(CC(=O)[O-])CC2)C(=O)N[C@H](CCCCNC(=O)CCC(=O)NCCC[C@@H](NC(=O)CC[C@H](NC(=O)N[C@@H](CCC(=O)O)C(=O)O)C(=O)O)C(=O)O)C(=O)O)cc1)C(C)(C)C.[Ga+3] [rhPSMA7.3, [^19F][^natGa]D-Dap-S-DOTAGA-rhPSMA7]",Pancreas dose Beta,3.12E−03 mSv/MBq
same,Pancreas dose Photon,8.12E−03 mSv/MBq
same,Pancreas dose Total,1.12E−02 mSv/MBq
same,Red Marrow ED Cont.,9.97E−04 mSv/MBq
same,Red Marrow EDE Cont.,9.97E−04 mSv/MBq
same,Red Marrow dose Alpha,0.00E000 mSv/MBq
same,Red Marrow dose Beta,2.22E−03 mSv/MBq
same,Red Marrow dose Photon,6.09E−03 mSv/MBq
same,Red Marrow dose Total,8.31E−03 mSv/MBq
same,Skin ED Cont.,6.57E−05 mSv/MBq
same,Skin EDE Cont.,0.00E000 mSv/MBq
same,Skin dose Alpha,0.00E000 mSv/MBq
same,Skin dose Beta,3.12E−03 mSv/MBq
same,Skin dose Photon,3.45E−03 mSv/MBq
same,Skin dose Total,6.57E−03 mSv/MBq
same,Small Intestine ED Cont.,5.45E−05 mSv/MBq
same,Small Intestine EDE Cont.,0.00E000 mSv/MBq
same,Small Intestine dose Alpha,0.00E000 mSv/MBq
same,Small Intestine dose Beta,3.12E−03 mSv/MBq
same,Small Intestine dose Photon,7.78E−03 mSv/MBq
same,Small Intestine dose Total,1.09E−02 mSv/MBq
same,Spleen ED Cont.,1.33E−04 mSv/MBq
same,Spleen EDE Cont.,1.59E−03 mSv/MBq
same,Spleen dose Alpha,0.00E000 mSv/MBq
same,Spleen dose Beta,1.52E−02 mSv/MBq
same,Spleen dose Photon,1.14E−02 mSv/MBq
same,Spleen dose Total,2.66E−02 mSv/MBq
same,Stomach Wall ED Cont.,1.19E−03 mSv/MBq
same,Stomach Wall EDE Cont.,0.00E000 mSv/MBq
same,Stomach Wall dose Alpha,0.00E000 mSv/MBq
same,Stomach Wall dose Beta,3.12E−03 mSv/MBq
same,Stomach Wall dose Photon,6.80E−03 mSv/MBq
same,Stomach Wall dose Total,9.92E−03 mSv/MBq
same,Testes ED Cont.,0.00E000 mSv/MBq
same,Testes EDE Cont.,0.00E000 mSv/MBq
same,Testes dose Alpha,0.00E000 mSv/MBq
same,Testes dose Beta,3.12E−03 mSv/MBq
same,Testes dose Photon,6.08E−03 mSv/MBq
same,Testes dose Total,9.20E−03 mSv/MBq
same,Thymus ED Cont.,4.09E−05 mSv/MBq
same,Thymus EDE Cont.,0.00E000 mSv/MBq
same,Thymus dose Alpha,0.00E000 mSv/MBq
same,Thymus dose Beta,3.12E−03 mSv/MBq
same,Thymus dose Photon,5.06E−03 mSv/MBq
same,Thymus dose Total,8.18E−03 mSv/MBq
same,Thyroid ED Cont.,4.13E−04 mSv/MBq
same,Thyroid EDE Cont.,2.48E−04 mSv/MBq
same,Thyroid dose Alpha,0.00E000 mSv/MBq
same,Thyroid dose Beta,3.12E−03 mSv/MBq
same,Thyroid dose Photon,5.15E−03 mSv/MBq
same,Thyroid dose Total,8.27E−03 mSv/MBq
same,Total Body ED Cont.,0.00E000 mSv/MBq
same,Total Body EDE Cont.,0.00E000 mSv/MBq
same,Total Body dose Alpha,0.00E000 mSv/MBq
same,Total Body dose Beta,3.45E−03 mSv/MBq
same,Total Body dose Photon,5.42E−03 mSv/MBq
same,Total Body dose Total,8.87E−03 mSv/MBq
same,ULI Wall ED Cont.,5.23E−05 mSv/MBq
same,ULI Wall EDE Cont.,0.00E000 mSv/MBq
same,ULI Wall dose Alpha,0.00E000 mSv/MBq
same,ULI Wall dose Beta,3.12E−03 mSv/MBq
same,ULI Wall dose Photon,7.33E−03 mSv/MBq
same,ULI Wall dose Total,1.05E−02 mSv/MBq
same,Urinary Bladder Wall ED Cont.,3.92E−03 mSv/MBq
same,Urinary Bladder Wall EDE Cont.,4.70E−03 mSv/MBq
same,Urinary Bladder Wall dose Alpha,0.00E000 mSv/MBq
same,Urinary Bladder Wall dose Beta,5.18E−02 mSv/MBq
same,Urinary Bladder Wall dose Photon,2.66E−02 mSv/MBq
same,Urinary Bladder Wall dose Total,7.84E−02 mSv/MBq
same,Uterus ED Cont.,7.13E−05 mSv/MBq
same,Uterus EDE Cont.,8.55E−04 mSv/MBq
same,Uterus dose Alpha,0.00E000 mSv/MBq
same,Uterus dose Beta,3.12E−03 mSv/MBq
same,Uterus dose Photon,1.11E−02 mSv/MBq
same,Uterus dose Total,1.43E−02 mSv/MBq
